Tests used:
GrhO5 [1] = target: T1, GrhO5 (Streptomyces sp. JP95, UniProt Q8KSX7); test: X-ray crystal structure, […] Å; format: binding; details: ligand-free acceptor state, FAD in OUT
T1 construct: crystallised; domains I-III, residues 1-537 described; construct details only in supplement
T1 sequence (Q8KSX7 1-537): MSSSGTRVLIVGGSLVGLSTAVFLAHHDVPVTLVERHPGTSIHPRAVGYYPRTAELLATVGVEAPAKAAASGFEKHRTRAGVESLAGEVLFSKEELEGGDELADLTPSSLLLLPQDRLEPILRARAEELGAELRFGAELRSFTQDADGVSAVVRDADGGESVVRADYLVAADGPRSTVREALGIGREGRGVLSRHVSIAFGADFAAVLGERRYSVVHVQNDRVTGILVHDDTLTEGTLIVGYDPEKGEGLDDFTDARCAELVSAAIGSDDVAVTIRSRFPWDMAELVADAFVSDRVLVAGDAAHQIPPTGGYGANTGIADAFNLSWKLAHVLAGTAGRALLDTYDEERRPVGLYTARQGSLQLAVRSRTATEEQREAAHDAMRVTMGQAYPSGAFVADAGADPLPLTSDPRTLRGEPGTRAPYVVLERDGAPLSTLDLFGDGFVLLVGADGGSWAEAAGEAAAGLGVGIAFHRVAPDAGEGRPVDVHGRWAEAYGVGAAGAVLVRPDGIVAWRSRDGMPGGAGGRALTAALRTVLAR

GrhO5 [2] = target: T1, GrhO5; test: X-ray crystal structure, crystals soaked with […]; format: binding; details: FAD in OUT, reducible state; bound ligand may be 3 or its reduced form 5 (dihydrocollinone)

Compound	X-ray crystal structure, 1.75 Å (GrhO5 [1])	X-ray crystal structure, crystals soaked with 3 (GrhO5 [2])
Cc1cc2nc3c(=O)[nH]c(=O)nc-3n(C[C@H](O)[C@H](O)[C@H](O)COP(=O)(O)OP(=O)(O)OC[C@H]3O[C@@H](n4cnc5c(N)ncnc54)[C@H](O)[C@@H]3O)c2cc1C [FAD]	domains I and II are essential for FAD‐ and substrate binding, respectively	–
COc1cc(=O)c2c(=O)c3c(c(=O)c=2c1=O)=C(O)[C@@]1(O)c2c(cc4cc(C)oc(=O)c4c2O)CC[C@@]1(O)C=3O [compound 3, collinone]	–	revealed clear electron density in the open, solvent‐exposed substrate‐binding site

— PMC9299503, “Catalytic Control of Spiroketal Formation in Rubromycin Polyketide Biosynthesis” (Angewandte Chemie (International Ed. in English), 2021)
